Data published in patent US6573243B1, “Pompilid wasp-derived neuropeptides” (Suntory Limited, priority 1997, dated 2003).

Tested on: nerve-muscle junction of a lobster's walking leg
Assay: Effect on excitatory postsynaptic potential (EPSP) in the neuromuscular specimen of a lobster's walking leg
Details: for concentration at which the peptide enhanced EPSP: sample dissolved in artificial seawater on the nerve-muscle junction side, excitatory nerve electrically stimulated; for biological activity of the synthetic peptide compared with the natural peptide: synthetic vs natural peptide
Experimental: The biological activity of the present peptides can be assayed according to the methods described in Japanese Patent Laid-Open No. 4-198161, in which excitatory postsynaptic potential (EPSP) is generated in the neuromuscular specimen of a lobster's walking leg, and the effect of the compound given to the nerve fibers on the EPSP is determined.
In general, substances inhibiting EPSP are believed to be glutamate antagonists or inhibitors for the release of glutamic acid, and the substances enhancing EPSP are believed to be glutamate-like agonists or accelerators for the release of glutamic acid.
The effect of the present peptides on excitatory postsynaptic potential (EPSP) was measured according to the method disclosed in Japanese Patent Laid-Open No. 4-198161. Thus, the shell of a lobster's walking leg was removed to expose the excitatory nerve and the inhibitory nerve, and a stimulating electrode was attached thereto. Then the nerve-muscle junction was exposed, and a recording electrode was attached thereto. The walking leg equipped with the electrodes was transferred to a container filled with an artificial seawater, and a partition was set up between the stimulating electrode part and the recording electrode part. The samples to be measured were dissolved into the artificial seawater in the recording electrode side (i.e., the side containing the nerve-muscle junction). Subsequently, the excitatory nerve was electrically stimulated and the EPSP, which was induced by glutamic acid released from the nerve end in response to the stimulation, was recorded.

Row | Substance | concentration at which the peptide enhanced EPSP | biological activity of the synthetic peptide compared with the natural peptide
1 | H-Arg-Ile-Lys-Ile-Gly-Leu-Phe-Asp-Gln-Leu-Ser-Lys-Leu-NH2 (H-RIKIGLFDQLSKL-NH2) [peptide (1)] | 1000 nM | same biological activity as the natural peptides
2 | H-Arg-Ile-Lys-Ile-Gly-Leu-Phe-Asp-Gln-Leu-Ser-Arg-Leu-NH2 (H-RIKIGLFDQLSRL-NH2) [peptide (97)] | 200 nM | same biological activity as the natural peptides
